This is an account of results in US20180251431A1 (VERTEX PHARMACEUTICALS INCORPORATED, priority 2016, published 2018).

In data set [1] the test system is human microglia. The data set can be described thus: Reduction in C26:0 LPC in human microglia in vitro. The following applies: half maximal reduction in C26:0 LPC. It counts as cell-based. As for the experimental part:
Lysophosphatidylcholine (LPC) VLCFA were generated from straight chain VLCFA (SC-VLCFA) and were used clinically for newborn screening (Vogel et al., Mol. Genet. Metab. (2015) 114(4):599-603). In vitro efficacy studies were performed by measuring LPC VLCFA level (measured as LPC synthesis) in various cell lines, specifically in 1) human HEK cells, 2) patient derived cells, and 3) human microglia, which are disease relevant CNS cells. Compound 87's dose response relationships and IC50 values were measured in HEK cells, primary patient fibroblasts, immortalized patient lymphocytes, and a human microglial cell line. […]
Immortalized human microglia (Applied Biological Materials (ABM); catalog #T0251; Richmond BC, Canada) were grown and sub-cultured following the subculturing protocols from ABM except DMEM (high glucose, pyruvate; LifeTech Cat. No. 11995) was used instead of Prigrow III medium and standard tissue culture grade flasks and plates were used. […] An equal volume of media was used to neutralize the detachment media and the cells were collected and counted. […]
Upon the completion of the compound treatment, the media (with compound treatment) was aspirated from the well. […] The plate was sealed with a plate tape and put at −80° C. for further VLCFA extraction and VLCFA quantitation on LC-MS, as described below.
VLCFA Extraction and Quantitation on LCMS: […]

A short description of data set [2]: Metabolic intrinsic clearance in human hepatocytes. It counts as in vitro ADME. The following applies: cryopreserved hepatocytes in suspension, pH 7.5, 0.5 million cells/mL, incubation for 4 hours. On the procedure: (§1) The metabolic intrinsic clearance (CLint) of Compound 87 was determined in human, monkey, dog, rat, and mouse hepatocytes. Cryopreserved human hepatocytes (Lot Hue50c), monkey hepatocytes (cynomolgus; Lot Cy328), dog hepatocytes (beagle, Lot Db235), rat hepatocytes (Sprague Dawley; NNH), and mouse hepatocytes (CD-1; Lot Mc522) were obtained from ThermoFisher (Paisley, UK). In separate experiments, compound 87 (1 μM) was incubated with hepatocytes from each species (0.5 million cells/mL, suspension) in Dulbecco's Modified Eagle's Medium (DMEM) supplemented with 4-(2-Hydroxyethyl)piperazine-1-ethanesulfonic acid (HEPES, 9 mM) and fructose (2.2 mM) (pH 7.5). Samples were quenched with acetonitrile and analyzed by LC-MS/MS. The mean CLint for Compound 87 in human, monkey, dog, rat, and mouse hepatocytes after incubation for 4 hours was determined to be ≤2.5, ≤2.5, 7.2, 23.6 and 10.7 μL/min/million cells. Based on these date, Compound 87 was low to moderately metabolized in hepatocytes in mouse, rat, dog, monkey, and human, and the rank order of stability at […] was approximately human>monkey>dog>mouse>rat. […] The metabolic stability of Compound 87 was not expected.

Data set [3] in a line: Metabolic intrinsic clearance in monkey hepatocytes. It counts as in vitro ADME, cynomolgus monkey. The following applies: cryopreserved hepatocytes in suspension, pH 7.5, 0.5 million cells/mL, incubation for 4 hours. As for the experimental part: as §1
Data set [4] deals with ABCD1 KO mice. The data set can be described thus: Thermal pain sensitivity (Plantar test, Hargreaves apparatus) in ABCD1 KO mice. The format is in vivo, mouse. Particulars: male ABCD1 KO mice. As for the experimental part:
ABCD1 KO mice were used as a functional model of AMN. ABCD1 KO mice display a progressive loss of sensitivity to painful thermal stimulus similar to symptoms observed in AMN patients such as decreased sensitivity to touch. To determine the effect of Compound 87 on thermal sensitivity, Compound 87 was dosed PO QD either prophylactically or therapeutically to determine whether ABCD1 KO mice have different latency thresholds for the Plantar test (Hargreaves apparatus) response compared to wild-type (WT) mice. For the prophylactic study, mice were tested beginning at 10 months of age (before the loss of pain sensitivity) using doses of either 5 or 20 mg/kg. For the therapeutic study, mice were tested beginning at 18 months of age, after there was already a significant loss of pain sensitivity, using doses of either 32 or 64 mg/kg. […] The Plantar test (using a Hargreaves apparatus) was used and measured the latency to respond to a thermal stimulus using the following protocol. An individual mouse was placed into an individual compartment with a glass floor for about 10-15 minutes until they were settled. Each individual mouse was given three trials with an infrared source on each hind paw (alternated hind paws each time, and waited 5 minutes between each trial). […] When a response was observed (paw withdrawal), the key/button was released and the latency to respond was recorded (in seconds).

Broadly, the IC50 is the midpoint of a concentration-inhibition curve. Broadly, the hepatocyte CLint is the capacity of the preparation to metabolise the compound, expressed as a volume cleared per time. Take `O=C(Nc1ccn(-c2ccnc(F)c2)n1)C1(c2ccccc2F)CC1` [Compound 87, 1-(2-fluorophenyl)-N-[1-(2-fluoro-4-pyridyl)pyrazol-3-yl]cyclopropanecarboxamide]: in data set [1], the IC50 came to 0.011 µM. The hepatocyte CLint at 1 μM in data set [2] and in data set [3] was at most 2.5 µL/min/1e6 cells each time. Besides, the “thermal pain sensitivity (response latency, Plantar test), prophylactic treatment” value in data set [4] (5 or 20 mg/kg PO QD, dosing initiated at 10 months of age, 6 month period) is “reduced the loss of thermal pain sensitivity”. Also, the “thermal pain sensitivity (response latency, Plantar test), therapeutic treatment” value in data set [4] (32 or 64 mg/kg PO QD, dosing initiated at 18 months of age) is “reversed the loss of thermal pain sensitivity”.
